Test results as given in patent publication US9561228B2 (Celgene Avilomics Research, Inc., priority 2013, dated 2017).
Like-named read-outs stand apart in the source and are kept apart here.

What was measured:
[1] = system: ERK1/2 phosphorylation of p90RSK in HT29 cells; assay: pRSK MSD Assay in HT29 cells; assay type: cell-based; details: Homo sapiens, HT-29, read-out: ERK1/ERK2 PRSK MSD HT29 EC50
In short: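 Phospho-RSK level, read by electrochemiluminescence on RSK-antibody-coated MSD plates with a phospho-RSK/Sulfo-tag detection pair, reports cellular ERK1/2 activity. HT29 cells, kept overnight in 0.1% FBS medium, were exposed to compound for 120 min at 37° C before lysis.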

MEK1 activated ERK1 = target: T1, MEK1 activated ERK1 (Homo sapiens, UniProt P27361); assay: Omnia continuous-read kinase assay for potency against MEK1 activated ERK1; assay type: biochemical
T1 construct: purchased Millipore (Billerica, Mass.) 14-439-K
In short: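 Apparent IC50 came from initial reaction slopes (RFU vs time) plotted against log inhibitor with a variable-slope fit. Reactions were started with ERK1 (4 nM final) added to 50 μM ATP, roughly at its appKM, and 10 μM Sox-conjugated ST17 peptide in 20 mM Tris pH 7.5, 5 mM MgCl2. Fluorescence was monitored every 71 seconds.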

[2] = system: HT-29 cells (colorectal adenocarcinoma); assay: Inhibition of cancer cell proliferation, HT-29 (CellTiterGlo, 72 hours); assay type: cell-based; details: Homo sapiens
In short: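 Proliferation over 72 h at 37° C was read by CellTiterGlo luminescence, translated to cell counts with a cell-density standard curve (390–50,000 cells). Compound added as 3-fold dilutions from a 5,000 nM two-fold stock to 3000 seeded HT-29 cells; GI50 from percent inhibition relative to untreated wells.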

Erk1 = target: T2, Erk1 (Homo sapiens, UniProt P27361); assay: Protein Mass Modification Assay (intact protein MALDI, 60 min, 10-fold excess of compound); assay type: binding
T2 construct: purchased Millipore 14-439
Experimental: Protein Mass Modification Assay
Intact protein: Erk1 from Millipore (Cat. No. 14-439) was incubated for 60 min. at room temperature with a 10-fold excess of test compound to protein. 4 μL aliquots of the resulting mixture were diluted with 15 μL of 0.2% TFA prior to micro C4 ZipTipping directly onto the MALDI target using sinapinic acid as the desorption matrix (10 mg/ml in 0.1% TFA:Acetonitrile 50:50, v/v). The centroid mass of the target protein in the control sample was compared with the centroid mass of the target protein incubated with compound. A shift in the centroid mass of the treated protein compared to the untreated protein was divided by the molecular weight of the compound. This number corresponds to the percentage of modified protein after one hour incubation. Results from this assay are reported in Table A under the column “ERK1 Mass Mod (%).”

[3] = system: ERK1/2 phosphorylation of p90RSK in A375 cells; assay: Detection of total and phosphor-RSK by MSD ELISA (A375); assay type: cell-based; details: Homo sapiens, A-375, read-out: ERK1/ERK2 PRSK A375 EC50
Experimental: Detection of Total and Phosphor-RSK by MSD ELISA (A375)
The protocol below describes an assay to measure the kinase activity of ERK1/2 to phosphorylate a substrate, p90RSK, in the presence or absence of a test compound.
A375 cells were grown in DMEM/10% FBS. Twenty four hours prior to the assay, 50,000 cells per well were plated in a 96 well flat bottom plate. Once cells attached to the plate, the medium was replaced with 100 ul of DMEM/0.1% FBS. Cells were cultured overnight in an incubator at 37° C.
Compound stock solutions of 10 mM in DMSO were prepared. 1000× dilutions were then prepared in DMSO. 1 uL of DMSO solution was then transferred to 1 ml DMEM/0.1% FBS in a deep well plate. Cell plate media was discarded, followed by addition of 100 uL of the compound-containing media. The preparation was incubated at 37° C. for 2 hrs.
Cell lysates were prepared as described below.
pRSK or Total RSK MSD Assay
MSD plates: Blank MSD plates were coated with 30 uL capture antibody (BD 610226) at a final concentration of 1 ug/mL in PBS. Both pRSK and total RSK MSD assays used the same capture antibody at the same concentration. Antibody stock concentration was 250 ug/mL. Once antibody solution was added to the MSD plate, the sides were tapped to be certain it was coated completely (visual inspection). It was then covered and placed at 4° C. overnight on a level surface.
Block MSD Plate: The coating antibody was removed and the plate was washed on a plate washer in MSD wash buffer. The last bit of wash solution was tapped out and 150 uL/well of 3% BSA in MSD wash buffer was added in. The preparation was placed on a shaker at room temperature for at least an hour.
Add samples: Media was removed from compound-treated cells and replaced with 55 uL/well MSD cell lysis buffer containing protease and phosphotase I & II inhibitors. The preparation was incubated on a shaker in a cold room for 30-45 min. The blocked MSD plate was washed a on plate washer, tapping out the last bit of wash solution, followed by addition of 50 uL (of the 55 ul) cell lysate in a well-well transfer. The preparation was covered and incubated on a shaker at room temp for 2 hours. The lysate was removed, washed on a plate washer 3 times, and the last bit of wash buffer was tapped out and replace with 25 uL/well detection antibody (described below).
For pRSK detection, a pRSK antibody stock of 21 ug/mL was prepared as follows: 1 ug/mL pRSK Ser380 antibody (Cell Signaling Technology, Cat. #9335)+1:750 anti-rabbit SulfoTag (Mesoscale Discovery, Cat. # R32AB-1) in 1% BSA in MSD wash buffer.
For total RSK detection, a total RSK antibody stock of 200 ug/mL was prepared as follows: 1 ug/mL total RSK (Santa Cruz sc-231G) antibody+1:750 anti-goat SulfoTag (from MSD, R32AG-1) in 1% BSA in MSD wash buffer.
The plate was incubated for 1 hr at room temperature on a shaker, followed by three washings. The last bit of wash buffer was tapped out. 150 uL/well 1×MSD Read buffer was added and the plate was then analyzed.

[4] = MEK1 activated ERK1, ATP at KM, read-out: ERK1 Omnia WT ATP KM IC50

T1 sequence (P27361 whole entry): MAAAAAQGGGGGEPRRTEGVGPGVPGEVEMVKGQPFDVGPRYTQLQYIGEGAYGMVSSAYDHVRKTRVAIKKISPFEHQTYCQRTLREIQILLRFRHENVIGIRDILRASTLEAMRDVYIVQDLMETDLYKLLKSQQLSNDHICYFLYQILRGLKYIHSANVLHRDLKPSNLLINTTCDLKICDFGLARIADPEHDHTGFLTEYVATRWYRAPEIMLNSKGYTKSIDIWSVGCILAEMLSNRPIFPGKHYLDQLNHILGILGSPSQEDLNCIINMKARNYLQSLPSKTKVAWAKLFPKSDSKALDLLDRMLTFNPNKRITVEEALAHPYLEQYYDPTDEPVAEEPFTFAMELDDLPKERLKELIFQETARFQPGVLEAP
T2 sequence (P27361 whole entry): as above

Compound | EC50 [1] | IC50 (MEK1 activated ERK1; [4]) | GI50 [2] | ERK1 Mass Mod (%) (Erk1) | IC50 (MEK1 activated ERK1; ATP at KM, WT) | EC50 [3]
C=CC(=O)Nc1ccccc1Nc1nc(N[C@H]2CCC[C@@H](CO)C2)ncc1Cl (racemic) [Compound I-121, Rac-cis-N-(2-((5-chloro-2-((3-(hydroxymethyl)cyclohexyl)amino)pyrimidin-4-yl)amino)phenyl)acrylamide] | < 100 nM | < 100 nM | < 100 nM | E (key: E: a mass modification of ≧70%; F: a mass modification of 31-69%; G: a mass modification ≦30%) | – | –
C=CC(=O)Nc1ccccc1Nc1nc(N[C@@H]2CCC[C@H](C(N)=O)C2)ncc1C(F)(F)F [Compound I-7, (1S,3R)-3-((4-((2-acrylamidophenyl)amino)-5-(trifluoromethyl)pyrimidin-2-yl)amino)cyclohexanecarboxamide] | 501 to 999 nM | – | 501 to 999 nM | E (a mass modification of ≧70%) | – | –
CC(=O)N1CCC[C@H](Nc2ncc(C(F)(F)F)c(Nc3ccccc3NC(=O)CCCl)n2)C1 [Compound I-21, (S)—N-(2-((2-((1-Acetylpiperidin-3-yl)amino)-5-(trifluoromethyl)pyrimidin-4-yl)amino)phenyl)-3-chloropropanamide] | > 1000 nM | 101 to 500 nM | – | G (a mass modification ≦30%) | – | –
C=CC(=O)N[C@@H]1CCCC[C@H]1Nc1nc(N[C@H]2CCCN(C(=O)CO)C2)ncc1C(F)(F)F [Compound I-32, N-((1R,2R)-2-((2-(((S)-1-(2-hydroxyacetyl)piperidin-3-yl)amino)-5-(trifluoromethyl)pyrimidin-4-yl)amino)cyclohexyl)acrylamide] | > 1000 nM | 101 to 500 nM | – | F (a mass modification of 31-69%) | – | –
C=CC(=O)Nc1ccccc1Nc1nc(Nc2cc(C(=O)NOCCO)ccc2C)ncc1C(F)(F)F [Compound I-73, 3-((4-((2-Acrylamidophenyl)amino)-5-(trifluoromethyl)pyrimidin-2-yl)amino)-N-(2-hydroxyethoxy)-4-methylbenzamide] | 101 to 500 nM | 101 to 500 nM | 101 to 500 nM | E (a mass modification of ≧70%) | – | –
C=C(C)S(=O)(=O)Nc1cc(C)ccc1Nc1nc(Nc2cc(C(C)=O)ccc2C)ncc1C(F)(F)F [Compound I-98, N-(2-((2-((5-acetyl-2-methylphenyl)amino)-5-(trifluoromethyl)pyrimidin-4-yl)amino)-5-methylphenyl)prop-1-ene-2-sulfonamide] | > 1000 nM | 101 to 500 nM | – | G (a mass modification ≦30%) | – | –
C=CC(=O)Nc1cc(OC)ccc1Nc1nc(Nc2ccc(N3CCC[C@@H]3C(N)=O)cc2C#N)ncc1Cl [Compound I-180, (R)-1-(4-((4-((2-acrylamido-4-methoxyphenyl)amino)-5-chloropyrimidin-2-yl)amino)-3-cyanophenyl)pyrrolidine-2-carboxamide] | 501 to 999 nM | 501 to 999 nM | > 1000 nM | E (a mass modification of ≧70%) | – | –
C=CC(=O)Nc1ccccc1Nc1nc(Nc2cc(C(N)=O)ccc2C(F)(F)F)ncc1Cl [Compound I-220, 3-((4-((2-acrylamidophenyl)amino)-5-chloropyrimidin-2-yl)amino)-4-(trifluoromethyl)benzamide] | 501 to 999 nM | 101 to 500 nM | – | E (a mass modification of ≧70%) | – | –
C#CCOc1cc(C)c(Nc2ncc(Cl)c(Nc3ccccc3NC(=O)C=C)n2)cc1C(N)=O [Compound I-228, 5-((4-((2-acrylamidophenyl)amino)-5-chloropyrimidin-2-yl)amino)-4-methyl-2-(prop-2-yn-1-yloxy)benzamide] | 101 to 500 nM | 101 to 500 nM | – | E (a mass modification of ≧70%) | – | –
C=C(C)S(=O)(=O)Nc1cc(F)ccc1Nc1nc(Nc2cc(C(C)=O)ccc2C)ncc1Cl [Compound I-243, N-(2-((2-((5-acetyl-2-methylphenyl)amino)-5-chloropyrimidin-4-yl)amino)-5-fluorophenyl)prop-1-ene-2-sulfonamide] | > 1000 nM | > 1000 nM | – | G (a mass modification ≦30%) | – | –
C=CC(=O)Nc1ccccc1Nc1nc(N[C@H]2CCCN(C(=O)CCCC(=O)NCCCOCCOCCOCCCNC(=O)CCCC[C@@H]3SC[C@@H]4NC(=O)N[C@@H]43)C2)ncc1Cl [Compound I-303, 5-((S)-3-((4-((2-acrylamidophenyl)amino)-5-chloropyrimidin-2-yl)amino)piperidin-1-yl)-5-oxo-N-(15-oxo-19-((3aS,4S,6aR)-2-oxohexahydro-1H-thieno[3,4-d]imidazol-4-yl)-4,7,10-trioxa-14-azanonadecyl)pentanamide] | > 1000 nM | – | > 1000 nM | G (a mass modification ≦30%) | – | –
C=CC(=O)Nc1cc(CN2CCN(C)CC2)ccc1Nc1nc(Nc2cc(OC)ncc2C)ncc1C(F)(F)F [Compound I-380, N-(2-((2-((2-methoxy-5-methylpyridin-4-yl)amino)-5-(trifluoromethyl)pyrimidin-4-yl)amino)-5-((4-methylpiperazin-1-yl)methyl)phenyl)acrylamide] | 501 to 999 nM | – | – | E (a mass modification of ≧70%) | > 1000 nM | > 1000 nM
